For ten compounds, Ki results are on record in BindingDB's records for doi:10.1038/305140a0 (College of France, 1983).

Where “and” joins values, the source holds several entries; their conditions need not be identical. Equal entries are not always repeated. Bounds are passed on as bounds.

The target in this assay is T1, 5-hydroxytryptamine receptor 1A (Rattus norvegicus, UniProt P19327).
T1 sequence (P19327 whole entry): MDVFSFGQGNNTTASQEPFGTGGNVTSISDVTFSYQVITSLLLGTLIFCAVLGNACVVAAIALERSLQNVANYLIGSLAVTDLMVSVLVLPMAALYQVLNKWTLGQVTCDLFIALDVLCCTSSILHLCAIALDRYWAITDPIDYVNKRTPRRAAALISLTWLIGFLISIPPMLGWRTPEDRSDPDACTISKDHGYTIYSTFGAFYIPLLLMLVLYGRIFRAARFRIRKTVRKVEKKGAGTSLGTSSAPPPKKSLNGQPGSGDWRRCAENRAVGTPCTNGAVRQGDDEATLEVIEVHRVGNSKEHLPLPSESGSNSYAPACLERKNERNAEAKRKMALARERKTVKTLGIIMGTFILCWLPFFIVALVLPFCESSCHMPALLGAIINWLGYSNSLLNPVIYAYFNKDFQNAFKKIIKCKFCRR
For the compound `COc1ccc2[nH]cc(CCN(C)C)c2c1` [3-(2-DIMETHYLAMINOETHYL)-5-METHOXYINDOLE], the Ki (in general, the dissociation constant of the complex between target and ligand, obtained from inhibition or displacement) was 0.0398 µM and 0.288 µM. As for `NCCc1c[nH]c2ccccc12` [1H-indole-3-ethanamine], the figure is 3.72 µM and > 10 µM; as for `CC(CN1c2ccccc2Sc2ccccc21)N(C)C` (stereo not drawn) [N,N,alpha-trimethyl-10H-phenothiazine-10-ethanamine], more than 10 µM; as for `NCCc1ccc(O)c(O)c1`, more than 10 µM. In turn, `CN1C2CCC1CC(OC(c1ccccc1)c1ccccc1)C2` (stereo not given) yielded a Ki of more than 10 µM.

As to `CN(C)CCCN1c2ccccc2CCc2ccccc21`, the Ki is more than 10 µM. In the case of `CN(C)CCCSc1ccccc1NC(=O)/C=C/c1ccccc1` [CINANSERIN] it was 1.1 µM and > 10 µM; in that of `CN1C[C@H](CNC(=O)OCc2ccccc2)C[C@@H]2c3cccc4c3c(cn4C)C[C@H]21` [METERGOLINE], 0.0347 µM and 0.245 µM; in that of `CN1CCC(=C2c3ccccc3CCc3sccc32)CC1` [NSC_27400], 2.19 µM and 6.17 µM. Regarding `O=C(c1ccc(F)cc1)C1CCN(CCn2c(=O)[nH]c3ccccc3c2=O)CC1` [3-(2-{4-[(4-fluorophenyl)carbonyl]piperidin-1-yl}ethyl)-1,2,3,4-tetrahydroquinazoline-2,4-dione], the Ki is 4.17 µM and > 10 µM.
